Measured values reported in ChEMBL document CHEMBL1153316, “Selectivity profiling of DegP substrates and inhibitors” (Bioorg Med Chem, 2009).
Peptide text beside a SMILES is read from it.

Columns and labels:
[1] = Inhibition of trypsin assessed as specific activity at 0.5 mM; set-up: scale not given: the % may be the effect or the level left
[2] = Inhibition of chymotrypsin assessed as specific activity at 0.5 mM; set-up: scale not given: the % may be the effect or the level left
[3] = molecular target: Plasminogen (Homo sapiens) (UniProt P00747); assay: Inhibition of plasmin assessed as specific activity at 0.5 mM; set-up: scale not given: the % may be the effect or the level left
Chain of Plasminogen (Homo sapiens) (P00747 97-580 limits assumed): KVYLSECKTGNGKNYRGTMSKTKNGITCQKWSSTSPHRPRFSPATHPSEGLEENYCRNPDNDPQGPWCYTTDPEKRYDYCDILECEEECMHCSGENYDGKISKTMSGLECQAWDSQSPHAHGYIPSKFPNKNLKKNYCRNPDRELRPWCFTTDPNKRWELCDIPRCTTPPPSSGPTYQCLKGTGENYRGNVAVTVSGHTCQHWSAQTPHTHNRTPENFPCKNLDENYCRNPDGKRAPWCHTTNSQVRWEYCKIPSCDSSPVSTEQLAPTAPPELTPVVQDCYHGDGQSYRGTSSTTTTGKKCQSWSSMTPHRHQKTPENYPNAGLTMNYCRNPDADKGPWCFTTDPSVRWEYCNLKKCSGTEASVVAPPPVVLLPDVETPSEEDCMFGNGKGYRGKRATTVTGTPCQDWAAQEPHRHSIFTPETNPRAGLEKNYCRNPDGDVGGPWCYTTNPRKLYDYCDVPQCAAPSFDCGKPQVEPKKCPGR
Chain of Plasminogen (Homo sapiens) (P00747 581-810 limits assumed): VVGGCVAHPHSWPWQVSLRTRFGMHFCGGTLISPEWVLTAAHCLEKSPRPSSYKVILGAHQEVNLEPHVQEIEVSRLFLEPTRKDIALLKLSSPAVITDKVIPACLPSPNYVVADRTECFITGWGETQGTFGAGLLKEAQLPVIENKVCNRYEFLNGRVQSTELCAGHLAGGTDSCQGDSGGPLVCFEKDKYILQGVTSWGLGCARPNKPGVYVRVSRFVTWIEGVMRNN

[4] = Inhibition of elastase assessed as specific activity at 0.5 mM; set-up: scale not given: the % may be the effect or the level left
[5] = Inhibition of kallikrein assessed as specific activity at 0.5 mM; set-up: scale not given: the % may be the effect or the level left
Escherichia coli [6] = assay: Inhibition of Escherichia coli degP assessed as specific activity at 0.5 mM; set-up: scale not given: the % may be the effect or the level left
[7] = molecular target: Prothrombin (Homo sapiens) (UniProt P00734); assay: Inhibition of thrombin assessed as specific activity at 0.5 mM; set-up: scale not given: the % may be the effect or the level left
[8] = Inhibition of subtilisin assessed as specific activity at 0.5 mM; set-up: scale not given: the % may be the effect or the level left
[9] = Inhibition of elastase assessed as residual proteolytic activity at 0.5 mM
[10] = molecular target: Prothrombin (Homo sapiens) (UniProt P00734); assay: Inhibition of thrombin assessed as residual proteolytic activity at 0.5 mM
[11] = Inhibition of subtilisin assessed as residual proteolytic activity at 0.5 mM
Escherichia coli [12] = assay: Inhibition of Escherichia coli degP assessed as residual proteolytic activity at 0.5 mM
[13] = Inhibition of chymotrypsin assessed as residual proteolytic activity at 0.5 mM
[14] = Inhibition of trypsin assessed as residual proteolytic activity at 0.5 mM
[15] = molecular target: Plasminogen (Homo sapiens) (UniProt P00747); assay: Inhibition of plasmin assessed as residual proteolytic activity at 0.5 mM
[16] = Inhibition of kallikrein assessed as residual proteolytic activity at 0.5 mM

Row | SMILES | Activity [1] | Activity [2] | Activity [3] | Activity [4] | Activity [5] | Activity (Escherichia coli [6]) | Activity [7] | Activity [8] | Activity [9] | Activity [10] | Activity [11] | Activity (Escherichia coli [12]) | Activity [13] | Activity [14] | Activity [15] | Activity [16]
1 | CSCC[C@H](NC(=O)[C@@H]1CCCN1C(=O)[C@@H](N)CO)C(=O)N[C@@H](Cc1ccccc1)C(=O)N[C@@H](CCCCN)C(=O)NCC(=O)N[C@H](C(=O)Nc1ccc([N+](=O)[O-])cc1)C(C)C (HELM PEPTIDE1{S.P.M.F.K.G.V.[O=[N+]([O-])c1ccc(N[*:1])cc1]}$$$$V2.0) | < 1% | < 1% | < 1% | 7% | < 1% | 18% | < 1% | 3% |  |  |  |  |  |  |  | 
2 | CC(C)[C@H](NC(=O)CNC(=O)CNC(=O)[C@H](CC(=O)O)NC(=O)[C@@H](NC(=O)[C@@H](N)CO)[C@@H](C)O)C(=O)Nc1ccc([N+](=O)[O-])cc1 (HELM PEPTIDE1{S.T.D.G.G.V.[O=[N+]([O-])c1ccc(N[*:1])cc1]}$$$$V2.0) | < 1% | < 1% | 2% | 5% | < 1% | < 1% | < 1% | < 1% |  |  |  |  |  |  |  | 
3 | CC(C)[C@H](NC(=O)[C@@H]1CCCN1C(=O)[C@@H](NC(=O)[C@H](C)NC(=O)CNC(=O)[C@H](CO)NC(=O)CNC(=O)[C@H](CO)NC(=O)[C@H](CC(N)=O)NC(=O)[C@H](CCCCN)NC(=O)CNC(=O)[C@@H](N)CCCCN)[C@@H](C)O)C(=O)Nc1ccc([N+](=O)[O-])cc1 (HELM PEPTIDE1{K.G.K.N.S.G.S.G.A.T.P.V.[O=[N+]([O-])c1ccc(N[*:1])cc1]}$$$$V2.0) | < 1% | 5% | < 1% | 74% | < 1% | < 1% | < 1% | 34% |  |  |  |  |  |  |  | 
4 | CC(C)[C@H](NC(=O)[C@H](CCCNC(=N)N)NC(=O)CNC(=O)[C@@H](N)CO)C(=O)N[C@H](C(=O)N1CCC[C@H]1C(=O)NCC(=O)N[C@@H](Cc1ccc(O)cc1)C(=O)NCC(=O)N[C@@H](Cc1cnc[nH]1)C(=O)N[C@@H](C)C(=O)Nc1ccc([N+](=O)[O-])cc1)C(C)C (HELM PEPTIDE1{S.G.R.V.V.P.G.Y.G.H.A.[O=[N+]([O-])c1ccc(N[*:1])cc1]}$$$$V2.0) | < 1% | < 1% | < 1% | 56% | < 1% | < 1% | < 1% | 2970% |  |  |  |  |  |  |  | 
5 | CSCC[C@H](NC(=O)[C@H](CCSC)NC(=O)[C@@H]1CCCN1C(=O)[C@H](CC(C)C)NC(=O)[C@@H](NC(=O)[C@H](CC(N)=O)NC(=O)[C@H](Cc1ccccc1)NC(=O)[C@@H](N)C(C)C)[C@@H](C)O)C(=O)NCC(=O)N[C@@H](CCCCN)C(=O)N[C@@H](C)C(=O)N[C@@H](CO)C(=O)N1CCC[C@H]1C(=O)N[C@H](C(=O)CCl)C(C)C (HELM PEPTIDE1{V.F.N.T.L.P.M.M.G.K.A.S.P.V.[ClC[*:1]]}$$$$V2.0) |  |  |  |  |  |  |  |  | < 1% | 102% | 155% | 57% | 22% | 287% | 75% | 88%
6 | CC(C)[C@H](NC(=O)[C@H](CCCNC(=N)N)NC(=O)CNC(=O)[C@@H](N)CO)C(=O)N[C@H](C(=O)N1CCC[C@H]1C(=O)NCC(=O)N[C@@H](Cc1ccc(O)cc1)C(=O)NCC(=O)N[C@@H](Cc1cnc[nH]1)C(=O)N[C@@H](C)C(=O)CCl)C(C)C (HELM PEPTIDE1{S.G.R.V.V.P.G.Y.G.H.A.[ClC[*:1]]}$$$$V2.0) |  |  |  |  |  |  |  |  | 83% | 131% | 15% | 102% | 69% | 285% | 62% | 135%
7 | CC[C@H](C)[C@H](N)C(=O)N[C@@H](Cc1c[nH]c2ccccc12)C(=O)N[C@@H](CC(N)=O)C(=O)N[C@H](C(=O)N[C@@H](CC(C)C)C(=O)N[C@@H](CC(N)=O)C(=O)N[C@@H](CO)C(=O)NCC(=O)N[C@@H](CCCNC(=N)N)C(=O)N[C@H](C(=O)N[C@H](C(=O)N1CCC[C@H]1C(=O)NCC(=O)N[C@H](C(=O)NCC(=O)N[C@@H](Cc1cnc[nH]1)C(=O)N[C@@H](C)C(=O)CCl)[C@@H](C)O)C(C)C)C(C)C)[C@@H](C)O (HELM PEPTIDE1{I.W.N.T.L.N.S.G.R.V.V.P.G.T.G.H.A.[ClC[*:1]]}$$$$V2.0) |  |  |  |  |  |  |  |  | 60% | 98% | 15% | 101% | 78% | 410% | 74% | 111%
8 | CSCC[C@H](NC(=O)[C@H](CCSC)NC(=O)[C@@H]1CCCN1C(=O)[C@H](CC(C)C)NC(=O)[C@@H](NC(=O)[C@H](CC(N)=O)NC(=O)[C@H](Cc1ccccc1)NC(=O)[C@@H](N)C(C)C)[C@@H](C)O)C(=O)NCC(=O)N[C@@H](CCCCN)C(=O)N[C@@H](C)C(=O)N[C@@H](CO)C(=O)N1CCC[C@H]1C(=O)N[C@H](C(=O)Nc1ccc([N+](=O)[O-])cc1)C(C)C (HELM PEPTIDE1{V.F.N.T.L.P.M.M.G.K.A.S.P.V.[O=[N+]([O-])c1ccc(N[*:1])cc1]}$$$$V2.0) | < 1% | 8% | < 1% | 89% | < 1% | 32% | < 1% | < 1% |  |  |  |  |  |  |  | 
9 | CSCC[C@H](NC(=O)[C@H](CCSC)NC(=O)[C@@H]1CCCN1)C(=O)NCC(=O)N[C@@H](CCCCN)C(=O)N[C@@H](C)C(=O)N[C@@H](CO)C(=O)N1CCC[C@H]1C(=O)N[C@H](C(=O)Nc1ccc([N+](=O)[O-])cc1)C(C)C (HELM PEPTIDE1{P.M.M.G.K.A.S.P.V.[O=[N+]([O-])c1ccc(N[*:1])cc1]}$$$$V2.0) | < 1% | < 1% | 4% | 96% | < 1% | 1% | < 1% | < 1% |  |  |  |  |  |  |  | 
10 | CSCC[C@H](NC(=O)[C@H](CCSC)NC(=O)[C@@H]1CCCN1C(=O)[C@H](CC(C)C)NC(=O)[C@@H](NC(=O)[C@H](CC(N)=O)NC(=O)[C@H](Cc1ccccc1)NC(=O)[C@@H](NC(=O)[C@@H]1CCCN1)C(C)C)[C@H](C)O)C(=O)NCC(=O)N[C@@H](CCCCN)C(=O)N[C@@H](C)C(=O)N[C@@H](CO)C(=O)N1CCC[C@H]1C(=O)N[C@H](C(=O)Nc1ccc([N+](=O)[O-])cc1)C(C)C | 1% | 3% | < 1% | 69% | < 1% | 18% | < 1% | < 1% |  |  |  |  |  |  |  | 
11 | CC(C)C[C@H](NC(=O)CN)C(=O)N[C@@H](C)C(=O)N[C@H](C(=O)NCC(=O)N[C@@H](CC(N)=O)C(=O)N[C@H](C(=O)N[C@@H](CO)C(=O)N[C@H](C(=O)N[C@@H](C)C(=O)N[C@@H](CCC(=O)O)C(=O)N[C@@H](CC(C)C)C(=O)N[C@@H](CCC(N)=O)C(=O)N[C@@H](CC(=O)O)C(=O)N[C@@H](C)C(=O)N[C@H](C(=O)N1CCC[C@H]1C(=O)N[C@@H](C)C(=O)Nc1ccc([N+](=O)[O-])cc1)[C@H](C)O)[C@@H](C)O)C(C)C)[C@@H](C)O | < 1% | 26% | < 1% | 24% | < 1% | < 1% | < 1% | 1520% |  |  |  |  |  |  |  | 
12 | CSCC[C@H](NC(=O)[C@H](CCSC)NC(=O)[C@@H]1CCCN1)C(=O)NCC(=O)N[C@@H](CCCCN)C(=O)N[C@@H](C)C(=O)N[C@@H](CO)C(=O)N1CCC[C@H]1C(=O)N[C@H](C(=O)CCl)C(C)C (HELM PEPTIDE1{P.M.M.G.K.A.S.P.V.[ClC[*:1]]}$$$$V2.0) |  |  |  |  |  |  |  |  | < 1% | 122% | 5% | 49% | 53% | 348% | 71% | 108%
13 | N=C(N)NCCC[C@H](NC(=O)c1ccccc1)C(=O)Nc1ccc([N+](=O)[O-])cc1 | 758% | < 1% | < 1% | < 1% | 24% | < 1% | 3% | < 1% |  |  |  |  |  |  |  | 
14 | CC(C)[C@H](NC(=O)[C@H](CCC(=O)O)NC(=O)[C@H](Cc1ccc(O)cc1)NC(=O)CNC(=O)[C@H](CO)NC(=O)[C@H](CC(=O)O)NC(=O)[C@H](Cc1cnc[nH]1)NC(=O)[C@H](CCCNC(=N)N)NC(=O)[C@H](Cc1ccccc1)NC(=O)[C@H](CCC(=O)O)NC(=O)[C@H](C)NC(=O)[C@H](CC(=O)O)NC(=O)[C@@H](N)CO)C(=O)Nc1ccc([N+](=O)[O-])cc1 | < 1% | < 1% | < 1% | 8% | < 1% | < 1% | < 1% | 2% |  |  |  |  |  |  |  | 
15 | CC(C)C[C@H](NC(=O)CNC(=O)[C@H](C)NC(=O)CNC(=O)[C@@H]1CCCN1C(=O)[C@@H](NC(=O)[C@H](CO)NC(=O)[C@H](C)NC(=O)CNC(=O)[C@@H](N)CCCCN)C(C)C)C(=O)N[C@H](C(=O)Nc1ccc([N+](=O)[O-])cc1)C(C)C (HELM PEPTIDE1{K.G.A.S.V.P.G.A.G.L.V.[O=[N+]([O-])c1ccc(N[*:1])cc1]}$$$$V2.0) | < 1% | < 1% | < 1% | 6% | < 1% | < 1% | < 1% | < 1% |  |  |  |  |  |  |  | 
